Reference: patent publication US20110263546A1, “Polyhydroxylated Bile Acids for Treatment of Biliary Disorders” (priority 2008, published 2011)
“Also recorded” adds a separate entry of the source. Where two headings read alike, the source gives them in different places.

What was measured:
wild-type mice [1] = conditions: for Infusion dose tolerated without death (highest dosage tested) / MTD compared with that of UDC: wild-type mice, tail vein infusion
Protocol: The maximum tolerated dose of bile acid according to the invention was determined. This test is carried out in two ways. First, as a pilot experiment of bile duct cannulation, a bolus of bile acid was infused into mice under anesthesia to measure its acute toxicity to animals. The responses of mice such as breath rate, bile flow rate, histological changes by H&E staining and the like were recorded. […] Using this tolerance level as a reference point, the acute toxicity of the bile acid was determined.
Bile collected was used for HPLC analysis.

wild-type mice [2] = experiment: Bile flow rate (BFR) by bile duct cannulation after tail vein infusion; type: in vivo, mouse; conditions: for Bile flow rate, UDC compared with THBAs at similar quantity: 65 μmol/kg body weight infusion; for Bile flow rate on infusion of increasing quantities: 65-400 μmol/kg BW (6β,7αTHBA), 65 and 200 μmol/kg BW (6α,7αTHBA)
Protocol: After 20 minutes of bile flow equilibration, bile was collected into pre-weighed tubes at 5-minute intervals for 10 minutes. A bolus of 3α,6α,7α,12α-tetrahydroxy-5β-cholan-24-oic acid (6α,7αTHBA, pH.7.4-7.6), 3α,6β,7α,12α-tetrahydroxy-5β-cholan-24-oic acid (6β,7αTHBA, pH.7.4-7.6), ursodeoxycholic acid (UDC, pH.7.4-7.6) or cholic acid (100 μmol/kg body weight) was then infused into the tail vein over a 20-second interval. Bile was then further collected through the cannula at 2-minute intervals for 10 or 20 minutes, followed by 10-minute intervals for 30 minutes. The bile flow rate was calculated by weighing the tubes containing the collected bile.

[3] = tested on: TKO, bsep−/−, mdr1a/b−/− and wildtype mice; conditions: female TKO mice, 0.5% CA diet
Protocol: Mice were maintained in a 12-hour light and dark cycle, at 22° C., with free access to food and water. The mice were fed a normal diet except where specified otherwise in the results.
Chronic toxicity is tested by supplementing the diets of mice (wild-type as well as the hypersensitive bsep KO mice) with 0.1%-0.5% β-muricholate or bile acid according to the invention. Control feeding experiments use cholate as well as ursodeoxycholate.

[4] = tested on: TKO, bsep−/−, mdr1a/b−/− and wildtype mice; conditions: 0.5% cholate diet, cited from earlier work
mice = conditions: cited from earlier work
[5] = mice, intravenous bolus (tail vein) infusion under anesthesia

SMILES	Maximum tolerated dose (MTD) (wild-type mice [1]; [5])	Infusion dose tolerated without death (highest dosage tested) (wild-type mice [1])	MTD compared with that of UDC (wild-type mice [1])	Bile flow rate, UDC compared with THBAs at similar quantity (wild-type mice [2])	Bile flow rate on infusion of increasing quantities (wild-type mice [2])	further results
C[C@H](CCC(=O)O)[C@H]1CC[C@H]2[C@@H]3[C@H](O)[C@H](O)[C@@H]4C[C@H](O)CC[C@]4(C)[C@H]3C[C@H](O)[C@]12C [6α,7αTHBA, 3α,6α,7α,12α-tetrahydroxy-5β-cholan-24-oic acid]	> 400 μmol/kg of body weight	400 μmol/kg of body weight	several times higher	similar	corresponding increase in bile flow rate	Effect on bile flow rate (BFR) (wild-type mice [2]; bolus 100 μmol/kg body weight into tail vein): stimulates bile flow rate; also recorded: promotes bile flow
C[C@H](CCC(=O)O)[C@H]1CC[C@H]2[C@@H]3[C@H](O)[C@@H](O)[C@@H]4C[C@H](O)CC[C@]4(C)[C@H]3C[C@H](O)[C@]12C [6β,7αTHBA, 3α,6β,7α,12α-tetrahydroxy-5β-cholan-24-oic acid]	> 500 μmol/kg of body weight	500 μmol/kg of body weight	several times higher	similar	corresponding increase in bile flow rate	
C[C@H](CCC(=O)O)[C@H]1CC[C@H]2[C@@H]3[C@H](O)C[C@@H]4C[C@H](O)CC[C@]4(C)[C@H]3C[C@H](O)[C@]12C [CA, 3α,7α,12α-trihydroxy-5β-cholan-24-oic acid]						Time until terminally ill or died [3]: 3 to 7 days; Time to death ([4]; female TKO mice): within a week; Time to death ([4]; male bsep KO mice): ≤ 10 days
C[C@H](CCC(=O)O)[C@H]1CC[C@H]2[C@@H]3[C@@H](O)C[C@@H]4C[C@H](O)CC[C@]4(C)[C@H]3CC[C@]12C [UDC, ursodeoxycholic acid, reference compound]						Infused dose that caused death (wild-type mice [1]; FVB/NJ, mouse, in vivo): ≥ 70 μmol/kg body weight; Maximum tolerated dose (MTD) (wild-type mice [1]; mouse, in vivo, iv): 65 μmol/kg of body weight; LD50 (mice; mouse, in vivo, iv): ~600 µmol/kg; Oral LD50 relative to intravenous LD50 (mice; rodents): at least 15 times
